Reference: ChEMBL document CHEMBL1136309, “Synthesis and SAR studies of potent HIV protease inhibitors containing novel dimethylphenoxyl acetates as P2 ligands” (Bioorg Med Chem Lett, 2003)

How the values were obtained:
[1] = system: Human immunodeficiency virus 1; assay: Antiviral activity was tested in absence of human serum in MT-4 cells (in vitro); type: functional, organism-based; conditions: Human immunodeficiency virus 1, MT4
[2] = system: Human immunodeficiency virus 1; assay: Antiviral activity was tested in presence of 50% human serum in MT-4 cells (in vitro); type: functional, organism-based; conditions: Human immunodeficiency virus 1, MT4
[3] = target: Human immunodeficiency virus type 1 protease (Human immunodeficiency virus 1) (UniProt Q72874); assay: Inhibitory activity against HIV protease at a compound concentration of 0.5 nM in MT-4 cells; type: cell-based; conditions: MT4
[4] = target: Human immunodeficiency virus type 1 protease (Human immunodeficiency virus 1) (UniProt Q72874); assay: Inhibitory activity against HIV protease at a compound concentration of 31 nM in MT-4 cells; type: cell-based; conditions: MT4
[5] = target: Human immunodeficiency virus type 1 protease (Human immunodeficiency virus 1) (UniProt Q72874); assay: Inhibitory activity against HIV protease at a compound concentration of 1 nM in MT-4 cells; type: cell-based; conditions: MT4
[6] = target: Human immunodeficiency virus type 1 protease (Human immunodeficiency virus 1) (UniProt Q72874); assay: Inhibitory activity against HIV protease at a compound concentration of 12 nM in MT-4 cells; type: cell-based; conditions: MT4
[7] = target: Human immunodeficiency virus type 1 protease (Human immunodeficiency virus 1) (UniProt Q72874); assay: Inhibitory activity against HIV protease at a compound concentration of 2.4 nM in MT-4 cells; type: cell-based; conditions: MT4

SMILES | EC50 [1] [nM] | EC50 [2] [nM] | inhibition [3] [%] | inhibition [4] [%] | inhibition [5] [%] | inhibition [6] [%] | inhibition [7] [%]
Cc1cc(C)c(OCC(=O)N[C@@H](Cc2ccccc2)C[C@H](O)[C@H](Cc2ccccc2)NC(=O)O[C@H]2COC3OCCC32)c(C)c1N (stereo not given in full) | 23 | 117 | 74 | – | – | – | –
Cc1cc(C(=O)N(C)C)cc(C)c1OCC(=O)N[C@@H](Cc1ccccc1)C[C@H](O)[C@H](Cc1ccccc1)NC(=O)O[C@H]1COC2OCCC21 (stereo not given in full) | 2310 | 11900 | – | – | – | – | –
Cc1cc(N)cc(C)c1OCC(=O)N[C@@H](Cc1ccccc1)C[C@H](O)[C@H](Cc1ccccc1)NC(=O)O[C@@H]1COC2OCCC21 (stereo not given in full) | 47 | 129 | 60 | – | – | – | –
Cc1cc2nsnc2c(C)c1OCC(=O)N[C@@H](Cc1ccccc1)C[C@H](O)[C@H](Cc1ccccc1)NC(=O)O[C@H]1COC2OCCC21 (stereo not given in full) | 621 | 5650 | 71 | – | – | – | –
Cc1cc(N)cc(C)c1[S+]([O-])CC(=O)N[C@@H](Cc1ccccc1)C[C@H](O)[C@H](Cc1ccccc1)NC(=O)O[C@H]1COC2OCCC21 (stereo not given in full) | 37500 | 98400 | – | 50 | – | – | –
Cc1cc(C(N)=O)cc(C)c1OCC(=O)N[C@@H](Cc1ccccc1)C[C@H](O)[C@H](Cc1ccccc1)NC(=O)O[C@H]1COC2OCCC21 (stereo not given in full) | 255 | 987 | – | – | – | – | –
Cc1cc(N)cc(C)c1SCC(=O)N[C@@H](Cc1ccccc1)C[C@H](O)[C@H](Cc1ccccc1)NC(=O)O[C@H]1COC2OCCC21 (stereo not given in full) | 5790 | 1040 | – | – | 56 | – | –
Cc1cc(OCCN2CCOCC2)cc(C)c1OCC(=O)N[C@@H](Cc1ccccc1)C[C@H](O)[C@H](Cc1ccccc1)NC(=O)O[C@H]1COC2OCCC21 (stereo not given in full) | 24 | 340 | 77 | – | – | – | –
Cc1cc2[nH]c(O)nc2c(C)c1OCC(=O)N[C@@H](Cc1ccccc1)C[C@H](O)[C@H](Cc1ccccc1)NC(=O)O[C@H]1COC2OCCC21 (stereo not given in full) | 972 | 3110 | 85 | – | – | – | –
Cc1cc(C)c(OCC(=O)N[C@@H](Cc2ccccc2)C[C@H](O)[C@H](Cc2ccccc2)NC(=O)O[C@H]2COC3OCCC32)c(C)c1 (stereo not given in full) | 205 | 479 | 82 | – | – | – | –
Cc1cc(N)cc(C)c1OCC(=O)N[C@@H](Cc1ccccc1)C[C@H](O)[C@H](Cc1ccccc1)NC(=O)OC1COC2OCCC12 (stereo not given in full) | 12 | 67 | 70 | – | – | – | –
CNc1cc(C)c(OCC(=O)N[C@@H](Cc2ccccc2)C[C@H](O)[C@H](Cc2ccccc2)NC(=O)OC2COC3OCCC23)c(C)c1 (stereo not given in full) | 112 | 507 | 64 | – | – | – | –
Cc1cc(NS(C)(=O)=O)cc(C)c1OCC(=O)N[C@@H](Cc1ccccc1)[C@@H](O)C[C@H](Cc1ccccc1)NC(=O)O[C@H]1COC2OCCC21 (stereo not given in full) | – | – | – | – | – | 50 | –
Cc1cc(N)c(N)c(C)c1OCC(=O)N[C@@H](Cc1ccccc1)C[C@H](O)[C@H](Cc1ccccc1)NC(=O)O[C@H]1COC2OCCC21 (stereo not given in full) | 644 | 1480 | 76 | – | – | – | –
Cc1cc([N+](=O)[O-])cc(C)c1OCC(=O)N[C@@H](Cc1ccccc1)C[C@H](O)[C@H](Cc1ccccc1)NC(=O)OC1COC2OCCC12 (stereo not given in full) | 927 | 8110 | 53 | – | – | – | –
Cc1ccc(O)c(C)c1OCC(=O)N[C@@H](Cc1ccccc1)C[C@H](O)[C@H](Cc1ccccc1)NC(=O)O[C@H]1COC2OCCC21 (stereo not given in full) | 7 | 98 | 92 | – | – | – | –
Cc1cc(N2COCC2=O)cc(C)c1OCC(=O)N[C@@H](Cc1ccccc1)C[C@H](O)[C@H](Cc1ccccc1)NC(=O)O[C@H]1COC2OCCC21 (stereo not given in full) | 214 | 930 | 74 | – | – | – | –
Cc1cc(F)cc(C)c1OCC(=O)N[C@@H](Cc1ccccc1)C[C@H](O)[C@H](Cc1ccccc1)NC(=O)O[C@H]1COC2OCCC21 (stereo not given in full) | 268 | 866 | 69 | – | – | – | –
Cc1cc(N)cc(C)c1S(=O)(=O)CC(=O)N[C@@H](Cc1ccccc1)C[C@H](O)[C@H](Cc1ccccc1)NC(=O)O[C@H]1COC2OCCC21 (stereo not given in full) | 10300 | 61800 | – | – | – | 50 | –

SMILES | EC50 [1] [nM] | EC50 [2] [nM] | inhibition [3] [%] | inhibition [4] [%] | inhibition [5] [%] | inhibition [6] [%] | inhibition [7] [%]
Cc1ccnc(C)c1OCC(=O)N[C@@H](Cc1ccccc1)C[C@H](O)[C@H](Cc1ccccc1)NC(=O)O[C@H]1COC2OCCC21 (stereo not given in full) | 184 | 438 | 49 | – | – | – | –
CNC(=O)c1cc(C)c(OCC(=O)N[C@@H](Cc2ccccc2)C[C@H](O)[C@H](Cc2ccccc2)NC(=O)O[C@H]2COC3OCCC32)c(C)c1 (stereo not given in full) | 220 | 533 | – | – | – | – | –
Cc1cc(N(C)C)cc(C)c1OCC(=O)N[C@@H](Cc1ccccc1)C[C@H](O)[C@H](Cc1ccccc1)NC(=O)O[C@H]1COC2OCCC21 (stereo not given in full) | 160 | 2070 | 43 | – | – | – | –
Cc1cccc(C)c1NCC(=O)N[C@@H](Cc1ccccc1)C[C@H](O)[C@H](Cc1ccccc1)NC(=O)O[C@H]1COC2OCCC21 (stereo not given in full) | 253 | 2150 | 69 | – | – | – | –
Cc1cccc(C)c1N(C)CC(=O)N[C@@H](Cc1ccccc1)C[C@H](O)[C@H](Cc1ccccc1)NC(=O)O[C@H]1COC2OCCC21 (stereo not given in full) | 2910 | 30200 | – | – | – | – | 50
Cc1ncnc(C)c1OCC(=O)N[C@@H](Cc1ccccc1)C[C@H](O)[C@H](Cc1ccccc1)NC(=O)O[C@H]1COC2OCCC21 (stereo not given in full) | 815 | 1390 | 56 | – | – | – | –
O=C(COc1ccccc1)N[C@@H](Cc1ccccc1)C[C@H](O)[C@H](Cc1ccccc1)NC(=O)O[C@H]1COC2OCCC21 (stereo not given in full) | – | – | 61 | – | – | – | –
Cc1cc2[nH]nnc2c(C)c1OCC(=O)N[C@@H](Cc1ccccc1)C[C@H](O)[C@H](Cc1ccccc1)NC(=O)O[C@H]1COC2OCCC21 (stereo not given in full) | 188 | 1880 | 67 | – | – | – | –
Cc1cc(Cl)c(N)c(C)c1OCC(=O)N[C@@H](Cc1ccccc1)C[C@H](O)[C@H](Cc1ccccc1)NC(=O)O[C@H]1COC2OCCC21 (stereo not given in full) | 62 | 659 | 86 | – | – | – | –
Cc1ccc(N)c(C)c1OCC(=O)N[C@@H](Cc1ccccc1)C[C@H](O)[C@H](Cc1ccccc1)NC(=O)O[C@H]1COC2OCCC21 (stereo not given in full) | 5 | 35 | 87 | – | – | – | –
Cc1cccc(C)c1OCC(=O)N[C@@H](Cc1ccccc1)C[C@H](O)[C@H](Cc1ccccc1)NC(=O)O[C@H]1COC2OCCC21 (stereo not given in full) | 41 | 300 | 87 | – | – | – | –
Cc1cccc(C)c1OCC(=O)N[C@@H](Cc1ccccc1)[C@@H](O)C[C@H](Cc1ccccc1)NC(=O)OC1COC2OCCC12 (stereo not given in full) | 61 | 272 | 91 | – | – | – | –
Cc1cc(N)cc(C)c1OCC(=O)N[C@@H](Cc1ccccc1)C[C@H](O)[C@H](Cc1ccccc1)NC(=O)O[C@H]1COC2OCCC21 (stereo not given in full) | 9 | 31 | 78 | – | – | – | –
Cc1ccccc1OCC(=O)N[C@@H](Cc1ccccc1)C[C@H](O)[C@H](Cc1ccccc1)NC(=O)O[C@H]1COC2OCCC21 (stereo not given in full) | – | – | 84 | – | – | – | –
Cc1cccc(CO)c1OCC(=O)N[C@@H](Cc1ccccc1)C[C@H](O)[C@H](Cc1ccccc1)NC(=O)O[C@H]1COC2OCCC21 (stereo not given in full) | 37 | 197 | 88 | – | – | – | –
Cc1cc(O)cc(C)c1OCC(=O)N[C@@H](Cc1ccccc1)C[C@H](O)[C@H](Cc1ccccc1)NC(=O)O[C@H]1COC2OCCC21 (stereo not given in full) | 32 | 76 | 82 | – | – | – | –
Cc1cc2oc(O)nc2c(C)c1OCC(=O)N[C@@H](Cc1ccccc1)C[C@H](O)[C@H](Cc1ccccc1)NC(=O)O[C@H]1COC2OCCC21 (stereo not given in full) | 160 | 501 | 61 | – | – | – | –
CCOC(=O)c1cc(C)c(OCC(=O)N[C@@H](Cc2ccccc2)C[C@H](O)[C@H](Cc2ccccc2)NC(=O)O[C@H]2COC3OCCC32)c(C)c1 (stereo not given in full) | 106 | 3220 | 84 | – | – | – | –
COc1cccc(C)c1OCC(=O)N[C@@H](Cc1ccccc1)C[C@H](O)[C@H](Cc1ccccc1)NC(=O)O[C@H]1COC2OCCC21 (stereo not given in full) | 353 | 1380 | 74 | – | – | – | –
